Results on four compounds are retold here after US11340216B2, “Methods and compositions for the positive selection of protein destabilizers” (Dana-Farber Cancer Institute, Inc., priority 2016, dated 2022).

SMILES strings stand for the structures.

The test system of assay [1] is EV-GFP / dCK-Tomato cell mixture. Nature of the assay: Cell mixing (bystander effect) assay, EV-GFP cells with dCK-Tomato cells, flow cytometry. The note with it: 100 μM BVdU, 100,000 cells/well, start 8% EV-GFP. Type of assay: cell-based. The text has this:
The scheme depicted in FIG. 14 generally describes the bystander effect assay in the context of dCK positive selection systems. Cells expressing dCK and tomato fluorescent protein (Td) are mixed with cells having empty vector (EV) and green fluorescent protein (GFP). When cultured with BVdU, cells expressing dCK are expected to convert the nucleotide analog into a product that elicits cytotoxicity, resulting in outgrowth of resistant cells (EV-GFP) as measured by relative GFP/Td fluorescence in the absence of significant bystander killing.
The effects of cell density in cell mixture experiments were examined. EV-GFP cells were mixed together with dCK-Tomato cells in a ratio of 1:9, and the resulting mixture of cells was plated in 6 well plates at 500,000 cells/well, 250,000 cells/well, and 100,000 cells/well, with two wells plated per cell density (FIG. 15). For each cell density, one well received 100 μM BVdU, and the other an equivalent amount of DMSO. Cells were split and re-seeded every 72 hours, to preserve cell density, and analyzed by flow cytometry to quantify the fraction of GFP and Tomato-labeled cells.

For another assay, the system named is DCK-IKZF1-IRES-GFP. Nature of the assay: Same-well assay, 1:1 mixture of DCK-IRES-Tomato and DCK-IKZF1-IRES-GFP 293T stables, GFP/Tomato ratio. As to conditions: BVdU exposure, FIG. 28. Type of assay: cell-based. As to the method: However, exposure of the cells to Pomalidomide and subsequent BVdU exposure specifically rescues the DCK-IKZF1-IRES-GFP population and increases the GFP/Tomato ratio.
This assay was deployed in a proof of concept experiment with a small library of ˜88 engineered IMiD derivatives and plated at 10 serial dilutions ranging from 10 μM to 300 pM.

Assay [2] concerns DCK-IKZF1-IRES-GFP in 293T cells. Nature of the assay: Pilot drug screen, up assay, 384 well, GFP fluorescence converted to Z-statistic. Type of assay: cell-based. The note with it: ~25 μM library drug, BVdU Day 1, read Day 5, FIG. 24. As to the method:
Columns 1, 23, and 24 of the plate shown in FIG. 23 (right) were treated with DMSO, Pomalidomide, and Dipyridamole, respectively, while each well in Columns 2-22 was treated with an individual drug (concentration=˜25 μM) from a library of approximately 550 bioactive chemicals. On Day 1, Column 1 was treated with DMSO, and Columns 2-24 were treated with BVdU. On Day 5, GFP fluorescence in each well was quantified using an Acumen Laser Cytometer.

In assay [3] the target is T1, deoxycytidine kinase (dCK) (Homo sapiens, UniProt P27707).
T1 construct: V5 (only if expressed from the GFP vector); expressed in transfected cells
Nature of the assay: BVdU sensitivity and pomalidomide rescue, cell count by Vi-Cell, cells expressing unfused dCK. It counts as cell-based. The note with it: 2 μM pomalidomide, BVdU dose-response, FIG. 8. The method, then:
(§1) To assess the validity of the proposed positive selection system, a set of experiments was devised according to the technique outlined in FIG. 6. On day −2, 1×10^6 cells were seeded into a 6 cm dish with 4 mL of DMEM culture media. On day −1, 30,000 cells were seeded per well of a 6 well plate in DMEM media, and on day 0, media were replaced with DMEM media supplemented with decreasing concentrations of BVdU, generated by serial dilution. From days 0-4, media were replaced daily, and on day 5, cells were counted by Vi-Cell. For pomalidomide rescue experiments, the cells were seeded as described above, but from day −2 onwards, were maintained in DMEM media supplemented with 2 μM pomalidomide (Selleck Chemicals).

Assay [4] relates to dCK-IKZF3 fusion protein. In words: Competition assay, dCK-IKZF3 GFP cells mixed with dCK tdTomato cells, flow cytometry. The note with it: 2 μM pomalidomide plus 100 μM BVdU, 14 days, FIG. 22. It counts as cell-based. The text has this: Next, a competition assay was devised using dCK and CK-IKZF constructs (FIG. 21). In these experiments, cells expressing dCK-IKZF fusion protein and GFP were mixed with cells expressing dCK and tdTomato. In the presence of BVdU, cells expressing either construct would be capable of generating the cytotoxic product. However, upon the addition of an IMiD (pomalidomide), dCK-IKZF fusion protein would be destabilized, allowing outgrowth of GFP+ cells. dCK-IKZF3 cells labeled with GFP were mixed with dCK cells labeled with tdTomato at a ratio of 1:99 and on day −2, were plated into 6 well plates at 100,000 cells/well in triplicate. On Day −1, the “Mock” and “BVdU” wells were treated with DMSO, and the “pomalidomide” well was treated with 2 μM pomalidomide. On day 0, the “Mock” well was treated with DMSO, while the “BVdU” well was treated with 100 μM BVdU, and the “pomalidomide” well received 2 μM pomalidomide and 100 μM BvDU. Cells were split, re-seeded to maintain cell density, treated with the appropriate drugs and analyzed by flow cytometry every 3 days.
In general terms: Flow cytometry measures light scatter and fluorescence of single cells or particles in a stream.

The test system of assay [5] is dCK-IKZF3 fusion protein. In words: BVdU sensitivity and pomalidomide rescue, cell count by Vi-Cell, cells expressing dCK-IKZF3 fusion. Type of assay: cell-based. The note with it: 2 μM pomalidomide, 100 μM BVdU, counted day 5, FIG. 7. The method, then:
as §1

Assay [6] deals with DCK-IKZF1-IRES-GFP in 293T cells. In words: Up assay with limited drug library of approximately 700 compounds. It counts as cell-based. As to conditions: ~700 compound library, BVdU on Day 2, read Day 5, FIG. 25. The method, then: For the up assay experiment, 293T cells stably infected to produce DCK-IKZF1-IRES-GFP were seeded in three 384 well plates on Day 0. Each well on each plate received a library drug from a ˜700 compound drug library, and BVdU on Day 2.

The test system of assay [7] is IKZF3 and IKZF3 fusion proteins. As to conditions: 2 μM or 20 μM Pomalidomide, FIG. 5.
Method: HEK-293FT (Invitrogen) cells were maintained in DMEM medium supplemented with 10% FBS, 100 U/mL Penicillin and 100 μg/mL streptomycin. Stable cell lines were established by lentiviral infection followed by growth in media containing 10 μg/mL blasticidin, followed by fluorescence activated cell sorting to collect GFP-expressing cells.
On day 0, 250,000 cells were seeded into each of three wells of a 6-well plate. […] Cells were washed twice with ice-cold PBS and harvested in EBC Lysis Buffer supplemented with 1× protease inhibitor (Roche). Whole cell extracts were resolved by SDS-PAGE, transferred onto a nitrocellulose membrane, and probed with indicated primary antibodies.
Assay [8] addresses T2, IKZF1-Firefly luciferase protein in 293T cells (UniProt P08659+Q13422+Q96SW2).
T2 construct: expressed in transfected cells; host or cells: 293T, stably infected
In words: Down assay, Firefly/Renilla luciferase ratio. The note with it: read Day 5, FIG. 26. Type of assay: cell-based. As to the method: A down assay experiment was conducted in parallel with the up assay experiment. For the down assay experiment, 293T cells stably infected to produce the IKZF1-Firefly luciferase protein as well as the Renilla luciferase protein from a single mRNA transcript were treated as described in the “Up” Assay. On Day 5, for each plate, Firefly and Renilla luciferase signals were quantified, and the Firefly/Renilla ratio calculated for each well and converted to a Z-statistic and plotted (FIG. 26). The hits noted in the “Up Assay” have been labeled in FIG. 25 and FIG. 26 to allow for comparison between the two assays.

T2 sequence (Q13422+P08659 fused): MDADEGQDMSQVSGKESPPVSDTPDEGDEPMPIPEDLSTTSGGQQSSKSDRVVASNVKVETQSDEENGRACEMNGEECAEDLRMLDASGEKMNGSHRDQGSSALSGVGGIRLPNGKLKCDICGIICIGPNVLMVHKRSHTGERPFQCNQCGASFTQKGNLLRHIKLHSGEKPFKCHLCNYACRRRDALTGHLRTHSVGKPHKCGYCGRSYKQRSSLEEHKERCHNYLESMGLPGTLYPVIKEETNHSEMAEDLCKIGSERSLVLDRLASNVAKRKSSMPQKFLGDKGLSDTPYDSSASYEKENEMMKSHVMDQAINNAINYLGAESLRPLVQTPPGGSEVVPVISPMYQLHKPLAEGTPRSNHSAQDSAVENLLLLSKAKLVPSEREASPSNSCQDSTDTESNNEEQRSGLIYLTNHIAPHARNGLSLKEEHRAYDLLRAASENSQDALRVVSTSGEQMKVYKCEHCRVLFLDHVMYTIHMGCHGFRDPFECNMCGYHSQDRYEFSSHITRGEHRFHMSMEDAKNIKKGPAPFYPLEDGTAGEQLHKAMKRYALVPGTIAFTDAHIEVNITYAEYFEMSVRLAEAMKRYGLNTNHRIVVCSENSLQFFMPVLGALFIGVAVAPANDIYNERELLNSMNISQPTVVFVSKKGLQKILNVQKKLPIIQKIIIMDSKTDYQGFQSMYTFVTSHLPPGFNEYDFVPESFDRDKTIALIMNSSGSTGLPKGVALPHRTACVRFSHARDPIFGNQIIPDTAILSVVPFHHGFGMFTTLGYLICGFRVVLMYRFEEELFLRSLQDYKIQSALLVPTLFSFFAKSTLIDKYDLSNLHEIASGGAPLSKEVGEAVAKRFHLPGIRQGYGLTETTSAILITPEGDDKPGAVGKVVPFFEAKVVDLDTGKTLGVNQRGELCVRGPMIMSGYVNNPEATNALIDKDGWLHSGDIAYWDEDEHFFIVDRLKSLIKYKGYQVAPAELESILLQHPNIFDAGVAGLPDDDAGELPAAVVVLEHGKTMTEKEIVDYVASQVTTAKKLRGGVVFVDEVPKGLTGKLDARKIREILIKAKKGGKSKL
T2 sequence (Q96SW2 whole entry): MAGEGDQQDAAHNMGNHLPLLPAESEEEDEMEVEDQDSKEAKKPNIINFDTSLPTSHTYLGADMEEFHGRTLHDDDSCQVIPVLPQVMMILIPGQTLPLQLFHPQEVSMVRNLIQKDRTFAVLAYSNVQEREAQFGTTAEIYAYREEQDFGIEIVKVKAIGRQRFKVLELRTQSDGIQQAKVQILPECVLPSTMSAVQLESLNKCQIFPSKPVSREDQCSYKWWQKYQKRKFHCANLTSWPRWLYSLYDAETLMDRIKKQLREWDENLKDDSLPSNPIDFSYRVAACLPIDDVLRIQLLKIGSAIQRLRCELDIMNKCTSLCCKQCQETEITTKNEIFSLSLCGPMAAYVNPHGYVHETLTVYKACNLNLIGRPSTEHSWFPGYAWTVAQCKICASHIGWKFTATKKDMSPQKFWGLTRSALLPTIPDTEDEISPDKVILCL
T2 sequence (Q16531 whole entry partner): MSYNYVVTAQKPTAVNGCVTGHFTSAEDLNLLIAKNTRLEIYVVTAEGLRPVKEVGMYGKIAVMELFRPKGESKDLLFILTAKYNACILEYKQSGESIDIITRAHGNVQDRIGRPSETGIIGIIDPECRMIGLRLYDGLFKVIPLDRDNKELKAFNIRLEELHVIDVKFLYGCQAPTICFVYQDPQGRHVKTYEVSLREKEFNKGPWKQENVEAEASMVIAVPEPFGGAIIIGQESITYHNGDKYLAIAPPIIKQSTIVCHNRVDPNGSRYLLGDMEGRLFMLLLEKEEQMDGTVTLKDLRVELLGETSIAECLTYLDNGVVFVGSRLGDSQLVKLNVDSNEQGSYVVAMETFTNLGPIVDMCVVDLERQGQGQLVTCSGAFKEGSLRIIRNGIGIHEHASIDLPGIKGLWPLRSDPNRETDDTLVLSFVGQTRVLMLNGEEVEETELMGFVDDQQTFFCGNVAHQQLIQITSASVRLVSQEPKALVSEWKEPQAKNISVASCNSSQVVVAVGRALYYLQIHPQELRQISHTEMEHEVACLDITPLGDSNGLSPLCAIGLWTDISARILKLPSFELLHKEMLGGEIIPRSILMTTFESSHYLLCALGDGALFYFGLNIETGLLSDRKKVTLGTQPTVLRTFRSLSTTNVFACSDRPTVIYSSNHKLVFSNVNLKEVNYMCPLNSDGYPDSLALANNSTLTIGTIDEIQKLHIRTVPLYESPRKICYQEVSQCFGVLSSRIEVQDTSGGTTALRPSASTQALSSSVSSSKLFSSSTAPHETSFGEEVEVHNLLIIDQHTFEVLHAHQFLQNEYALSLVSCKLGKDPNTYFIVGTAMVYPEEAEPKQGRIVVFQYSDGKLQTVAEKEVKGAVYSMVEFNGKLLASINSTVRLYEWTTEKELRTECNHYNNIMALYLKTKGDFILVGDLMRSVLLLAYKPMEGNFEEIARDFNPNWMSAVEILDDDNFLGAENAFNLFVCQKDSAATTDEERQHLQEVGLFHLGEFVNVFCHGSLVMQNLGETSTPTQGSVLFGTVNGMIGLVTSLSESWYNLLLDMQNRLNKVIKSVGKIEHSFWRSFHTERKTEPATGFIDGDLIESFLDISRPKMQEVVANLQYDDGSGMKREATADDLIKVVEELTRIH
T1 sequence (P27707 whole entry, species assumed): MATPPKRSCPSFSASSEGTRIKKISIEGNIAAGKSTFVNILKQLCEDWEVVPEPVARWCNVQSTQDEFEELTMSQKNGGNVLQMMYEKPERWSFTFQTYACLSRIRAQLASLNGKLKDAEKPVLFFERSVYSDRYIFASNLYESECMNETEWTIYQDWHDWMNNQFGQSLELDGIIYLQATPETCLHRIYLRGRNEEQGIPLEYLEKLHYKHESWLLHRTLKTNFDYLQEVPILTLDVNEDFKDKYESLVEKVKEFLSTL

Take `O=c1[nH]c(=O)n([C@H]2C[C@H](O)[C@@H](CO)O2)cc1/C=C/Br` [BVdU, bromovinyl-deoxyuridine]: the “EV-GFP cells as fraction of the cell mixture” value in assay [1] (day 3) was determined as 29%; in assay [1] (day 7) it was 88%.

On to `OCCN(CCO)c1nc(N2CCCCC2)c2nc(N(CCO)CCO)nc(N3CCCCC3)c2n1` [Dipyridamole, dipyridamole], for which, in the assay with DCK-IKZF1-IRES-GFP, the “Classification by GFP and GFP/Tomato ratio in the same well” value is “assay positive”. Moreover, the “Hit classification in pilot up-assay screen (GFP Z-statistic)” value in assay [2] was “non-specific hits”.

Regarding `Nc1cccc2c1C(=O)N(C1CCC(=O)NC1=O)C2=O` (stereo not shown) [Pomalidomide, pomalidomide], the “Rescue from BVdU in cells expressing enzyme only (DCK+Pom)” value in [3] is “rescue did not occur”. In addition, the “Classification by GFP and GFP/Tomato ratio in the same well” value in the assay with DCK-IKZF1-IRES-GFP is recorded as “true positive”. Besides, the “Outgrowth of GFP+ (dCK-IKZF3) cells from 1% initial population” value in the assay on dCK-IKZF3 fusion protein [4] was “allowed for outgrowth of GFP+cells”. Further, the “Rescue of cell viability from BVdU in cells expressing the fusion construct (CK-IKZF+Pom)” value with dCK-IKZF3 fusion protein [5] is “partial rescue and cell growth”. Besides, the “Hit classification in up assay (GFP Z-statistic)” value in assay [6] was “true-positive hits”. Besides, the “Hit classification in pilot up-assay screen (GFP Z-statistic)” value in assay [2] is on record as “true-positive hits”. Also, in assay [7], the “Cellular levels of IKZF3 and IKZF3 fusion proteins” value is on record as “highly sensitive”.

On to `Cc1cn([C@H]2C[C@H](O)[C@@H](CO)O2)c(=O)[nH]c1=O` [Thymidine], for which, in [8], the “Hit classification in down assay (Firefly/Renilla ratio Z-statistic)” value was “does not score”. The “Hit classification in up assay (GFP Z-statistic)” value in assay [6] is “assay positive”.
